Common to all, as to assay: DTP human tumour cell line panel, 48 h
In experiment [1] the test system is NCI-H23 lung.
Experiment [2] relates to RXF 393 renal.
Experiment [3] concerns NCI-H522 lung.
Experiment [4] relates to M14 melanoma.
Experiment [5] has as its system HCC-2998 colon.
Experiment [6] concerns OVCAR-8 ovarian.
The test system of experiment [7] is HS 578T breast.
Experiment [8] has as its system DU-145 prostate.
Experiment [9] deals with BT-549 breast.
Experiment [10] concerns NCI/ADR-RES ovarian.

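Cells were grown in 96-well plates and exposed to each compound for 48 hours at five concentrations; endpoints were interpolated linearly between bracketing concentrations, or set to the highest concentration if not reached. At the GI50, growth is halved. The concentration for full growth arrest is given as TGI.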

These results are taken from PubChem BioAssay (NCI).

Usually GI50 stands for the concentration that inhibits growth by half. In general, TGI refers to the concentration giving total growth inhibition.

In the case of `O=C(NCc1ccc(Cn2c(=O)sn(-c3ccccc3)c2=O)cc1)OCc1ccc2cccc(O)c2n1`, the GI50 in experiment [1] is 1.46 µM; in [2], 0.457 µM; in experiment [3] it was 0.407 µM; in experiment [4], 0.647 µM; in experiment [5] it was 1.81 µM; in experiment [6], 0.957 µM. Further, the GI50 in experiment [7] is 1.71 µM; in experiment [8] it was 1.08 µM; in experiment [9], 0.732 µM; in experiment [10], 1.7 µM. Moreover, the TGI in [1] is 3.06 µM; in [2], 1.71 µM; in [3], 1.69 µM; in experiment [4], 2.03 µM; in [5], 3.51 µM; in [6], 3 µM. For the same compound, the TGI was 4.9 µM in experiment [7], 2.29 µM in experiment [8], 2.3 µM in [9] and 8.87 µM in [10].
Take `O=C(Nc1cc(Nc2ncccc2-c2ncnc3nc[nH]c23)ccc1F)c1cc(C(F)(F)F)cc(C(F)(F)F)c1`: the GI50 was 1.45 µM in experiment [1]; 1.91 µM in experiment [2]; 2.38 µM in [3]; 0.33 µM in experiment [4]; 1.24 µM in experiment [5]; 3.67 µM in experiment [6]. Besides, the GI50 is 1.8 µM in [7], 4.16 µM in experiment [8], 2.87 µM in experiment [9] and 2.08 µM in experiment [10]. Besides, the TGI was above 10 µM in [1]; 4.62 µM in experiment [2]; above 10 µM in experiment [3]; 1.6 µM in experiment [4]; 2.74 µM in [5]; above 10 µM in experiment [6]. The TGI in experiment [7] is 8.88 µM; in experiment [8], above 10 µM; in experiment [9] it was 6.54 µM; in experiment [10] it was 7.32 µM.
Take `COC(=O)c1cc2c(o1)-c1nccc3c1c(nc1ccccc13)C2=O`: the GI50 is 5.66 µM in experiment [1]; 2.31 µM in experiment [4]; 2.1 µM in experiment [6]; 14.2 µM in [7]; 4.26 µM in [8]; 4.05 µM in experiment [9]. The GI50 in experiment [10] was 2.11 µM. For the same compound, the TGI in experiment [1] was determined as 26.7 µM; in experiment [4] it was 10.2 µM; in experiment [6], 6.38 µM; in experiment [7], 37.1 µM; in [8] it was 22.9 µM; in experiment [9], 18.2 µM. The compound also came in with a TGI in [10] of 5.68 µM.
Take `CCCc1cc(=O)n2c(C(=O)Nc3ccc(Cl)cc3C)c(C(=O)Nc3ccc(F)cc3)sc2n1`: the GI50 in experiment [1] was 26.4 µM; in [2], 1.17 µM; in experiment [3], 9.18 µM; in [4] it was 4.67 µM; in experiment [5] it was 96.6 µM; in [6], 2.05 µM. Besides, the GI50 in [7] is 2.27 µM; in [8], 9.37 µM; in [9], 27.7 µM; in [10], 10.6 µM. The TGI in [1] was above 150 µM; in [2], 4.46 µM; in experiment [3] it was 67.5 µM; in [4], 23.7 µM; in [5], above 150 µM; in experiment [6] it was 5.14 µM. Further, the TGI turned out to be 8.55 µM in experiment [7], 33.3 µM in experiment [8], 61 µM in experiment [9] and 59.7 µM in experiment [10].
Turning to `ClCCN(CCCl)c1ccc(CNc2ccccc2)cc1`, the GI50 in experiment [1] was 9.59 µM; in [3], 4.85 µM; in experiment [4], 8.27 µM; in [6], 6.34 µM; in experiment [7], 12.4 µM; in experiment [8], 5.28 µM. Besides, the GI50 was 7.2 µM in experiment [9] and 9.78 µM in experiment [10]. The TGI is above 100 µM in experiment [1]; 22 µM in experiment [3]; above 100 µM in [4]; above 100 µM in experiment [6]; 83.2 µM in [7]; above 100 µM in [8]. The figures for the TGI in [9] and in experiment [10] were 43 µM and above 100 µM, respectively.
As for `O=C1CCCN1c1ccccc1I(=O)=O`, the GI50 in experiment [1], in experiment [2], in [3], in [5], in [6] and in experiment [7] was above 100 µM in each case. The GI50 in experiment [8], in experiment [9] and in [10] was above 100 µM throughout. In addition, the TGI in experiment [1], in [2], in [3], in experiment [5], in experiment [6] and in experiment [7] was above 100 µM throughout. Besides, the TGI in experiment [8], in experiment [9] and in experiment [10] was above 100 µM in each case.
On to `CN(C)CCNCCN`, for which the TGI in experiment [1], in [3], in [4], in experiment [6], in experiment [7] and in [8] was above 100 µM in each case. Moreover, the concentration for total growth inhibition (TGI) in experiment [9] and in experiment [10] was above 100 µM in each case.
Turning to `O=C(Nc1cc(Cl)ccc1O)c1ccc(Nc2ccnc(C(F)(F)F)c2)cc1`, the GI50 is 2.46 µM in [1]; 5.71 µM in [2]; 3.56 µM in experiment [4]; 3.73 µM in experiment [5]; 4.54 µM in [6]; 3.75 µM in experiment [7]. The GI50 was 3.25 µM in [8], 2.21 µM in experiment [9] and 2.93 µM in [10]. In addition, the TGI in [1] was 7.81 µM; in experiment [2], above 100 µM; in experiment [4], 54.1 µM; in [5], above 100 µM; in [6], above 100 µM; in experiment [7] it was above 100 µM. For the same compound, the total growth inhibition concentration (TGI) in experiment [8] is above 100 µM; in experiment [9], 6.88 µM; in experiment [10] it was above 100 µM.
As to `O=C1c2ccccc2-c2c1c1ccccc1c(=O)n2CCN1CCNCC1`, the GI50 in [2] was 4.31 µM; in experiment [3], 3.06 µM; in experiment [5], 0.785 µM; in experiment [6], 0.968 µM; in [7] it was 3.74 µM; in experiment [8], 3.11 µM. The GI50 in experiment [9] is 4.96 µM; in experiment [10], 2.55 µM. The concentration for total growth inhibition (TGI) in experiment [2] is 19.6 µM; in experiment [3] it was 19.3 µM; in experiment [5] it was 5.01 µM; in experiment [6] it was 3.59 µM; in [7] it was 26.5 µM; in experiment [8], 8.79 µM. The TGI in experiment [9] amounted to 17.8 µM; in [10], 11.4 µM.
